Test results reported in US12678446B2 (PFIZER INC., priority 2020, dated 2026).
Where two headings read alike, the source gives them in different places.

Assays:
cell toxicity CC50 = assay type: cell-based; conditions: human; Hep-G2 cells; mean of at least two experiments; read-out: Cell Cytotoxicity CC50
[1] = test system: RSV (RSV A2 ECACC, 0709161v); experiment: RSV plaque reduction assay; assay type: cell-based, respiratory syncytial virus; conditions: mean of at least two experiments unless noted (n = 1)
Method in brief: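 Eight-point compound dilutions were premixed with RSV A2 (100 PFU/well) and applied to confluent Hep-G2 cells for 2 h, followed by a 2-day incubation at 37° C. under compound-containing 0.8% CMC overlay. EC50 comes from immunostained plaque counts relative to untreated virus wells, averaged over ≥2 runs.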

[2] = human respiratory syncytial virus, HepG2, read-out: RSV A2 Plaque EC50, RSV A2 in Hep-G2 cells

Structure (SMILES)	CC50 (cell toxicity CC50) [µM]	EC50 [1, 2] [µM]	EC50 ([1]; read-out: RSV A2 Plaque EC50, RSV A2 in Hep-G2 cells) [µM]
O=C(N[C@H]1N=C(c2ccccc2)c2cccc(F)c2NC1=O)c1c(-c2ccccc2F)nn2c1OCC(Cn1cccn1)C2 (stereo partly drawn) [Example 124, N-[(3S)-9-fluoro-2-oxo-5-phenyl-1,3-dihydro-1,4-benzodiazepin-3-yl]-2-(2-fluorophenyl)-6-(pyrazol-1-ylmethyl)-6,7-dihydro-5H-pyrazolo[5,1-b][1,3]oxazine-3-carboxamide]	> 25	0.076	
C[C@@H]1Cn2nc(-c3ccccc3F)c(C(=O)N[C@H]3N=C(c4ccccc4)c4ccccc4NC3=O)c2O1 [Example 202, (2R)-6-(2-Fluorophenyl)-2-methyl-N-[(3S)-2-oxo-5-phenyl-1,3-dihydro-1,4-benzodiazepin-3-yl]-2,3-dihydropyrazolo[5,1-b][1,3]oxazole-7-carboxamide]	> 25	0.127	
C[C@@H]1CCn2nc(-c3cnn(CC(C)(C)O)c3)c(C(=O)N[C@H]3N=C(c4ccccc4)c4cccc(F)c4NC3=O)c2O1 [Example 122, (5R)-N-[(3S)-9-fluoro-2-oxo-5-phenyl-1,3-dihydro-1,4-benzodiazepin-3-yl]-2-[1-(2-hydroxy-2-methylpropyl)pyrazol-4-yl]-5-methyl-6,7-dihydro-5H-pyrazolo[5,1-b][1,3]oxazine-3-carboxamide]	> 25	0.166	
CC1(C)COc2c(C(=O)N[C@H]3N=C(c4ccccc4)c4cccc(F)c4NC3=O)c(-c3ccccc3F)nn2C1 [Example 41, N-[(3S)-9-fluoro-2-oxo-5-phenyl-1,3-dihydro-1,4-benzodiazepin-3-yl]-2-(2-fluorophenyl)-6,6-dimethyl-5,7-dihydropyrazolo[5,1-b][1,3]oxazine-3-carboxamide]	> 25	0.029	
COC1COc2c(C(=O)N[C@H]3N=C(c4ccccc4)c4cccc(F)c4NC3=O)c(-c3ccccc3F)nn2C1 (stereo partly drawn) [Example 175, 2-(2-Fluorophenyl)-6-methoxy-N-[(3S)-9-fluoro-2-oxo-5-phenyl-1,3-dihydro-1,4-benzodiazepin-3-yl]-6,7-dihydro-5H-pyrazolo[5,1-b][1,3]oxazine-3-carboxamide]	> 25	0.061	
CC(O)Cc1ccc(-c2nn3c(c2C(=O)N[C@H]2N=C(c4ccccc4)c4cccc(F)c4NC2=O)O[C@H](C)CC3)cn1 (stereo partly drawn) [Example 78, (5R)-2-[6-(2-Hydroxypropyl)pyridin-3-yl]-5-methyl-N-[(3S)-9-fluoro-2-oxo-5-phenyl-1,3-dihydro-1,4-benzodiazepin-3-yl]-6,7-dihydro-5H-pyrazolo[5,1-b][1,3]oxazine-3-carboxamide]	> 25	0.217	
CC(C)C1COc2c(C(=O)N[C@H]3N=C(c4ccccc4)c4cccc(F)c4NC3=O)c(-c3ccccc3F)nn2C1 (stereo partly drawn) [Example 12, N-[(3S)-9-Fluoro-2-oxo-5-phenyl-2,3-dihydro-1H-1,4-benzodiazepin-3-yl]-2-(2-flurophenyl)-6-(propan-2-yl)-5H,6H,7H-pyrazolo[3,2-b][1,3]oxazine-3-carboxamide]	> 25	0.039	
CCN(Cc1ccccc1)CC1COc2c(C(=O)N[C@H]3N=C(c4ccccc4)c4cccc(F)c4NC3=O)c(-c3ccccc3F)nn2C1 (stereo partly drawn) [Example 174, 6-[[Benzyl(ethyl)amino]methyl]-N-[(3S)-9-fluoro-2-oxo-5-phenyl-1,3-dihydro-1,4-benzodiazepin-3-yl]-2-(2-fluorophenyl)-6,7-dihydro-5H-pyrazolo[5,1-b][1,3]oxazine-3-carboxamide]	> 25	0.406	
[2H]C([2H])([2H])Nc1ccc(-c2nn3c(c2C(=O)N[C@H]2N=C(c4ccccc4)c4cccc(F)c4NC2=O)O[C@H](C)CC3)cn1 [Example 71, (5R)-5-Methyl-N-[(3S)-9-fluoro-2-oxo-5-phenyl-1,3-dihydro-1,4-benzodiazepin-3-yl]-2-[6-(trideuteriomethylamino)pyridin-3-yl]-6,7-dihydro-5H-pyrazolo[5,1-b][1,3]oxazine-3-carboxamide]	> 25	0.091	
C[C@@H]1CCn2nc(-c3ccc(CO)nc3)c(C(=O)N[C@H]3N=C(c4ccccc4)c4cccc(F)c4NC3=O)c2O1 [Example 155, (5R)-N-[(3S)-9-fluoro-2-oxo-5-phenyl-1,3-dihydro-1,4-benzodiazepin-3-yl]-2-[6-(hydroxymethyl)pyri-din-3-yl]-5-methyl-6,7-dihydro-5H-pyrazolo[5,1-b][1,3]oxazine-3-carboxamide]	> 25	0.219	
CC(C)n1cc(-c2nn3c(c2C(=O)N[C@H]2N=C(c4ccccc4)c4cccc(F)c4NC2=O)OCCC3)cn1 [Example 148, N-[(3S)-9-fluoro-2-oxo-5-phenyl-1,3-dihydro-1,4-benzodiazepin-3-yl]-2-(1-propan-2-ylpyrazol-4-yl)-6,7-dihydro-5H-pyrazolo[5,1-b][1,3]oxazine-3-carboxamide]	> 25	0.072	
CC(C)Nc1ccc(-c2nn3c(c2C(=O)N[C@H]2N=C(c4ccccc4)c4cccc(F)c4NC2=O)O[C@@H](C)CC3)cn1 [Example 69]	> 25	0.034	
CCc1ccc(-c2nn3c(c2C(=O)N[C@H]2N=C(c4ccccc4)c4cccc(F)c4NC2=O)OCC(CO)C3)cn1 (stereo partly drawn) [Example 133, 2-(6-Ethylpyridin-3-yl)-N-[(3S)-9-fluoro-2-oxo-5-phenyl-1,3-dihydro-1,4-benzodiazepin-3-yl]-6-(hydroxymethyl)-6,7-dihydro-5H-pyrazolo[5,1-b][1,3]oxazine-3-carboxamide]	> 25	0.22	
C[C@H]1CCn2nc(-c3cnn(CC(F)(F)F)c3)c(C(=O)N[C@H]3N=C(c4ccccc4)c4cccc(F)c4NC3=O)c2O1 [Example 157, (5S)-N-[(3S)-9-fluoro-2-oxo-5-phenyl-1,3-dihydro-1,4-benzodiazepin-3-yl]-5-methyl-2-[1-(2,2,2-trifluoroethyl)pyrazol-4-yl]-6,7-dihydro-5H-pyrazolo[5,1-b][1,3]oxazine-3-carboxamide]	> 25	0.048	
O=C(N[C@H]1N=C(c2ccccc2)c2ccccc2NC1=O)c1c(-c2ccc(F)cc2F)nn2c1OCC(CO)C2 (stereo partly drawn) [Example 131, 2-(2,4-Difluorophenyl)-6-(hydroxymethyl)-N-[(3S)-2-oxo-5-phenyl-1,3-dihydro-1,4-benzodiazepin-3-yl]-6,7-dihydro-5H-pyrazolo[5,1-b][1,3]oxazine-3-carboxamide]	> 25	0.093	
Cc1ccc(-c2nn3c(c2C(=O)N[C@H]2N=C(c4ccccc4)c4cccc(F)c4NC2=O)O[C@H](C)CC3)c(C)n1 [Example 58, (5R)-2-(2,6-Dimethyl-3-pyridyl)-N-[(3S)-9-fluoro-2-oxo-5-phenyl-1,3-dihydro-1,4-benzodiazepin-3-yl]-5-methyl-6,7-dihydro-5H-pyrazolo[5,1-b][1,3]oxazine-3-carboxamide]	> 25	0.188	
COc1cc(-c2nn3c(c2C(=O)N[C@H]2N=C(c4ccccc4)c4cccc(F)c4NC2=O)O[C@H](C)CC3)ccn1 [Example 48, (5R)-2-(2-Methoxypyridin-4-yl)-5-methyl-N-[(3S)-9-fluoro-2-oxo-5-phenyl-1,3-dihydro-1,4-benzodiazepin-3-yl]-6,7-dihydro-5H-pyrazolo[5,1-b][1,3]oxazine-3-carboxamide]	> 25	0.246	
Cc1ccc(-c2nn3c(c2C(=O)N[C@H]2N=C(c4ccccc4)c4ccccc4NC2=O)O[C@H](C)CC3)c(C)n1 [Example 57, (5R)-2-(2,6-Dimethyl-3-pyridyl)-5-methyl-N-[(3S)-2-oxo-5-phenyl-1,3-dihydro-1,4-benzodiazepin-3-yl]-6,7-dihydro-5H-pyrazolo[5,1-b][1,3]oxazine-3-carboxamide]	> 25	0.353	
CC1CCn2nc(Cc3ccccc3)c(C(=O)N[C@H]3N=C(c4ccccc4)c4cccc(F)c4NC3=O)c2O1 (stereo in doubt) [Example 109, (5S)-2-Benzyl-N-[(3S)-9-fluoro-2-oxo-5-phenyl-1,3-dihydro-1,4-benzodiazepin-3-yl]-5-methyl-6,7-dihydro-5H-pyrazolo[5,1-b][1,3]oxazine-3-carboxamide]	> 25	0.114	
C[C@@H]1CCn2nc(-c3ccc(N4C[C@H]5C[C@@H]4CO5)nc3F)c(C(=O)N[C@H]3N=C(c4ccccc4)c4cccc(F)c4NC3=O)c2O1 (single isomer, unassigned) [Example 90]	> 25	0.02	
O=C(N[C@H]1N=C(c2ccccc2)c2cccc(F)c2NC1=O)c1c(-c2ccccc2F)nn2c1OCC(CO)C2 (single isomer, unassigned) [Example 110-1, (6R*)-N-[(3S)-9-fluoro-2-oxo-5-phenyl-1,3-dihydro-1,4-benzodiazepin-3-yl]-2-(2-fluorophenyl)-6-(hydroxymethyl)-6,7-dihydro-5H-pyrazolo[5,1-b][1,3]oxazine-3-carboxamide]	> 25	0.042	
C[S+]([O-])c1ccc(-c2nn3c(c2C(=O)N[C@H]2N=C(c4ccccc4)c4cccc(F)c4NC2=O)OCCC3)c(F)c1 (stereo partly drawn) [Example 194, 2-(2-Fluoro-4-methylsulfinylphenyl)-N-[(3S)-9-fluoro-2-oxo-5-phenyl-1,3-dihydro-1,4-benzodiazepin-3-yl]-6,7-dihydro-5H-pyrazolo[5,1-b][1,3]oxazine-3-carboxamide]	> 25	0.043	
COCC1CCn2nc(-c3ccccc3F)c(C(=O)N[C@H]3N=C(c4ccccc4)c4cccc(F)c4NC3=O)c2O1 (single isomer, unassigned) [Example 191-1, (5R*)-N-[(3S)-9-fluoro-2-oxo-5-phenyl-1,3-dihydro-1,4-benzodiazepin-3-yl]-2-(2-fluorophenyl)-5-(methoxymethyl)-6,7-dihydro-5H-pyrazolo[5,1-b][1,3]oxazine-3-carboxamide]	> 25		0.083
